How the values were obtained:
[1] = test system: Adults of Ctenocephalides felis; test: Test with cat fleas / oral uptake; format: in vivo; details: 100 ppm in citrated cattle blood, mortality after 24 h, strain "Georgi", at least 25% kill judged effective, read-out: % action (mortality of larvae)
Protocol: Test with Cat Fleas/Oral Uptake
To produce a suitable preparation, a suitable solution of active compound is prepared from 20 mg of active compound and 1 ml of DMSO. 20 μl of this formulation are added to 4 ml of citrated cattle blood and stirred.
20 unfed adult fleas (Ctenocephalides felis, strain “Georgi”) are placed into a chamber (Ø 5 cm) whose top and bottom are closed with gauze. A metal cylinder whose underside is covered with parafilm is placed onto the chamber. The cylinder contains the 4 ml of blood/active compound formulation which can be taken up by the fleas through the parafilm membrane. Whereas the blood is warmed to 37° C., the temperature in the area of the flea chambers is adjusted to 25° C. Controls are mixed with the same volume of DMSO, without addition of a compound. The determinations are carried out triplicate.
After 24 h, the mortality in % is determined.
Compounds which effect an at least 25% kill of the fleas within 24 h are judged to be effective.

Meloidogyne incognita = test: Meloidogyne test (nematicidal action, gall formation on lettuce roots); format: in vivo; details: 20 ppm active compound; 100% = no galls found, 0% = galls as untreated control; lettuce in sand
Protocol: To produce a suitable preparation of active compound, 1 part by weight of active compound is mixed with the stated amounts of solvent and emulsifier, and the concentrate is diluted with water to the desired concentration.
Containers are filled with sand, solution of active compound, Meloidogyne incognita egg larvae suspension and lettuce seeds. The lettuce seeds germinate and the plants develop. On the roots, galls are formed.
After the desired period of time, the nematicidal action is determined in % using gall formation as a measure. 100% means that no galls were found; 0% means that the number of galls on the treated plants corresponds to that of the untreated control.

Compound	mortality at 100 ppm [1] [%]	Kill rate in % after 14 days (Meloidogyne incognita) [%]
CN(Cc1ccc(Cl)nc1)C1=N/C(=N/C#N)SC1 [Example I-1, 4-(N-(6-chloro-3-pyridylmethyl)-N-methyl)amino-2-cyanimino-2,5-dihydro-[1,3]-thiazoline]	30	–
CN(Cc1ccc(Cl)nc1)C1=N/C(=N/C#N)SC1 [drawing 50]	–	98

Reference: US7417150B2, “Azoles having an insecticidal action” (Bayer CropScience AG, priority 2001, dated 2008)
